# From PubChem BioAssay AID2060886 (Molecular Pharmacology Branch, DTP, NCI, 2025)
# Test system: 653999-131-R-J2-PDC complex spheroids, growth inhibition
# Assay: Anticancer human tumor 653999-131-R-J2-PDC patient-derived lung adenocarcinoma cell line growth inhibition [RAS]
# Conditions: for IC50: curve of first compound; for viability, T/C: stronger effect = lower value
# Excerpt: RAS pathway inhibitors in Combinations in Complex Spheroids
# A high-throughput screen of multi-cell type tumor spheroids was designed to identify active combinations of RAS pathway inhibitors and targeted small molecules. Complex spheroids include a stromal component modeled by human endothelial cells (HUVEC) and fibroblasts modeled by human mesenchymal stem cells (MSCs). The concentration ranges selected for each drug and investigational agent were based upon clinically achievable concentrations if the clinical Cmax of the agent was known.
# Compounds. The drugs and investigational agents: abemaciclib (NSC768073), cobimetinib (NSC768068), divarasib (GDC6063, NSC841802), docetaxel (NSC628503), GDC-1971 (RLY-1971, NSC841576), gemcitabine (NSC613327), inavolisib (NSC800729), ipatasertib (NSC767898), KB-0742 (NSC834161), MRTX-1133 (NSC836407), osimertinib (NSC779217), RMC-4630 (NSC839698), RMC-6236 (NSC851965), RMC-6291 (NSC852671), Ro-3306 (NSC812927), sapanisertib (NSC764658), SN-38 (NSC673596), staurosporine (NSC755774), SY5609 (NSC837396), and tovorafenib (DAY101, NSC766906), were obtained from the National Cancer Institute (NCI) Developmental Therapeutics Program Chemical Repository. The FDA-approved anticancer drug set is available from the NCI Developmental Therapeutics Program. […] The stock solutions were prepared in dimethyl sulfoxide (DMSO, Sigma-Aldrich, St. Louis, MO, cat. D2650) at 800-fold the tested concentration and stored at -70 degrees C prior to their use. All drugs and investigational agents were tested over a range starting from a high concentration at or near the clinical Cmax and decreasing in half-log increments. If the clinical Cmax for an agent had not been determined, the highest concentration tested was 10 microM.
# Cell Culture. All cells were maintained in an incubator at 37 degrees C and 5% CO2 with 95% humidity. The PDC lines were cultured according to standard operating procedures established by the NCI PDMR. All PDCs were thawed and cultured in Matrigel-coated flasks prepared with a working solution of 1X Ham's F-12 nutrient mix, without supplementation (Invitrogen, Waltham, MA, cat. 11765054), 100 U/mL penicillin-streptomycin (Invitrogen, cat. 15140122), and 2.5% Matrigel (Corning Inc., Corning, NY, cat. 354248) for the first three passages. The 362531-283-R-J2-PDC and 782815-120-R-J1-PDC lines were cultured in 6C/Colon 1B media, which includes advanced DMEM/F-12 (Thermo Fisher Scientific, cat. 12634028), 10 mM HEPES (Thermo Fisher Scientific, cat. 15630080), 1X GlutaMAX supplement (Thermo Fisher Scientific, cat. 35050061), 0.1 mg/mL primocin (InvivoGen, San Diego, CA, cat. ant-pm-2), 10% defined fetal bovine serum, heat inactivated (HyClone Laboratories Inc., Logan, UT, cat. SH30070.03HI), 50% L-WRN conditioned media (ATCC, cat. CRL-3276), 1.25 mM N-Acetyl-L-cysteine (Sigma-Aldrich, cat. A9165), 10 mM nicotinamide (Sigma-Aldrich, cat. N0636), 1X B-27 supplement (Thermo Fisher Scientific, cat. 17504044), 1X N-2 supplement (Thermo Fisher Scientific, cat. 17502048), 50 ng/mL human EGF (Thermo Fisher Scientific, cat. PHG0311), and 10 microM Y-27632 dihydrochloride (Tocris Bioscience, cat. 1254). The K12877-001-R-J1-PDC line was cultured in 6I media, which includes all 6C/Colon 1B media plus 10 ng/mL human FGF-10 (PeproTech, cat. 100-26), 1 ng/mL human FGF-2 (PeproTech, cat. 100-18B), 1 µM prostaglandin E2 (Tocris Bioscience, cat. 2296), […] hydrocortisone (Sigma-Aldrich, cat. H4001), and […] bovine insulin (Sigma-Aldrich, cat. I6634). The K86415-001-R-J1-PDC line was cultured in 6D media, which includes all 6C/Colon 1B media components minus the L-WRN conditioned media. The 485176-168-R4-J1-PDC was cultured in PANC media, which includes all 6C/Colon 1B media plus 100 ng/mL human FGF-10 (PeproTech, cat. 100-26), 500 nM SB-431542 (Selleckchem, cat. S1067), and 10 nM gastrin (Tocris Bioscience, cat. 3006). […]
# 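Also: spheroids exposed to the agents for seven days before the readout.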
smiles,measurement,setting,value
CC(C)n1nc(-c2ccc3oc(N)nc3c2)c2c(N)ncnc21 + C=CC(=O)N1CCN(c2nc(OCC3CCCN3C)nc3c(F)c(-c4nc(N)cc(C)c4C(F)(F)F)c(Cl)cc23)C(C)C1,IC50,second compound 0.00316 µM,14.2 nM
same,IC50,second compound 0.01 µM,9.4 nM
same,IC50,second compound 0.0316 µM,16.4 nM
same,IC50,second compound 0.1 µM,12.4 nM
same,IC50,second compound 0.316 µM,11.7 nM
same,IC50,second compound 1 µM,15.9 nM
same,"viability, T/C","second compound 0.00316 µM, first compound 0.000316 µM",98.1%
same,"viability, T/C","second compound 0.00316 µM, first compound 0.001 µM",78.4%
same,"viability, T/C","second compound 0.00316 µM, first compound 0.00316 µM",73.5%
same,"viability, T/C","second compound 0.00316 µM, first compound 0.01 µM",52.5%
same,"viability, T/C","second compound 0.00316 µM, first compound 0.0316 µM",41.5%
same,"viability, T/C","second compound 0.00316 µM, first compound 0.1 µM",22.6%
same,"viability, T/C","second compound 0.01 µM, first compound 0.000316 µM",83.8%
same,"viability, T/C","second compound 0.01 µM, first compound 0.001 µM",97.3%
same,"viability, T/C","second compound 0.01 µM, first compound 0.00316 µM",68.8%
same,"viability, T/C","second compound 0.01 µM, first compound 0.01 µM",50.5%
same,"viability, T/C","second compound 0.01 µM, first compound 0.0316 µM",35%
same,"viability, T/C","second compound 0.01 µM, first compound 0.1 µM",29.1%
same,"viability, T/C","second compound 0.0316 µM, first compound 0.000316 µM",101%
same,"viability, T/C","second compound 0.0316 µM, first compound 0.001 µM",91.3%
same,"viability, T/C","second compound 0.0316 µM, first compound 0.00316 µM",71.8%
same,"viability, T/C","second compound 0.0316 µM, first compound 0.01 µM",58.1%
same,"viability, T/C","second compound 0.0316 µM, first compound 0.0316 µM",40.6%
same,"viability, T/C","second compound 0.0316 µM, first compound 0.1 µM",25%
same,"viability, T/C","second compound 0.1 µM, first compound 0.000316 µM",77.6%
same,"viability, T/C","second compound 0.1 µM, first compound 0.001 µM",74.6%
same,"viability, T/C","second compound 0.1 µM, first compound 0.00316 µM",70.7%
same,"viability, T/C","second compound 0.1 µM, first compound 0.01 µM",55.2%
same,"viability, T/C","second compound 0.1 µM, first compound 0.0316 µM",30.4%
same,"viability, T/C","second compound 0.1 µM, first compound 0.1 µM",26.3%
same,"viability, T/C","second compound 0.316 µM, first compound 0.000316 µM",92.8%
same,"viability, T/C","second compound 0.316 µM, first compound 0.001 µM",82%
same,"viability, T/C","second compound 0.316 µM, first compound 0.00316 µM",66.3%
same,"viability, T/C","second compound 0.316 µM, first compound 0.01 µM",51.1%
same,"viability, T/C","second compound 0.316 µM, first compound 0.0316 µM",39.7%
same,"viability, T/C","second compound 0.316 µM, first compound 0.1 µM",27.8%
same,"viability, T/C","second compound 1 µM, first compound 0.000316 µM",90.9%
same,"viability, T/C","second compound 1 µM, first compound 0.001 µM",91.8%
same,"viability, T/C","second compound 1 µM, first compound 0.00316 µM",72%
same,"viability, T/C","second compound 1 µM, first compound 0.01 µM",55.8%
same,"viability, T/C","second compound 1 µM, first compound 0.0316 µM",42.1%
same,"viability, T/C","second compound 1 µM, first compound 0.1 µM",26.6%
CCc1c2c(nc3ccc(O)cc13)-c1cc3c(c(=O)n1C2)COC(=O)[C@]3(O)CC + C=CC(=O)N1CCN(c2nc(OCC3CCCN3C)nc3c(F)c(-c4nc(N)cc(C)c4C(F)(F)F)c(Cl)cc23)C(C)C1,IC50,second compound 0.00316 µM,8.57 nM
same,IC50,second compound 0.01 µM,6.53 nM
same,IC50,second compound 0.0316 µM,6.41 nM
same,IC50,second compound 0.1 µM,5.92 nM
same,IC50,second compound 0.316 µM,5.94 nM
same,IC50,second compound 1 µM,8.46 nM
same,"viability, T/C","second compound 0.00316 µM, first compound 0.000949 µM",80.2%
same,"viability, T/C","second compound 0.00316 µM, first compound 0.003 µM",58.5%
same,"viability, T/C","second compound 0.00316 µM, first compound 0.00949 µM",53.5%
same,"viability, T/C","second compound 0.00316 µM, first compound 0.03 µM",34.3%
same,"viability, T/C","second compound 0.00316 µM, first compound 0.0949 µM",20.8%
same,"viability, T/C","second compound 0.00316 µM, first compound 0.3 µM",10.2%
same,"viability, T/C","second compound 0.01 µM, first compound 0.000949 µM",88.7%
same,"viability, T/C","second compound 0.01 µM, first compound 0.003 µM",61.9%
same,"viability, T/C","second compound 0.01 µM, first compound 0.00949 µM",44.2%
same,"viability, T/C","second compound 0.01 µM, first compound 0.03 µM",29%
same,"viability, T/C","second compound 0.01 µM, first compound 0.0949 µM",21.5%
same,"viability, T/C","second compound 0.01 µM, first compound 0.3 µM",11.3%
same,"viability, T/C","second compound 0.0316 µM, first compound 0.000949 µM",90.9%
same,"viability, T/C","second compound 0.0316 µM, first compound 0.003 µM",60.8%
same,"viability, T/C","second compound 0.0316 µM, first compound 0.00949 µM",43.8%
same,"viability, T/C","second compound 0.0316 µM, first compound 0.03 µM",30.4%
same,"viability, T/C","second compound 0.0316 µM, first compound 0.0949 µM",20.6%
same,"viability, T/C","second compound 0.0316 µM, first compound 0.3 µM",11.6%
same,"viability, T/C","second compound 0.1 µM, first compound 0.000949 µM",85.8%
same,"viability, T/C","second compound 0.1 µM, first compound 0.003 µM",58.3%
same,"viability, T/C","second compound 0.1 µM, first compound 0.00949 µM",43.1%
same,"viability, T/C","second compound 0.1 µM, first compound 0.03 µM",30.2%
same,"viability, T/C","second compound 0.1 µM, first compound 0.0949 µM",23.7%
same,"viability, T/C","second compound 0.1 µM, first compound 0.3 µM",12.1%
same,"viability, T/C","second compound 0.316 µM, first compound 0.000949 µM",83.9%
same,"viability, T/C","second compound 0.316 µM, first compound 0.003 µM",59.7%
same,"viability, T/C","second compound 0.316 µM, first compound 0.00949 µM",42.5%
same,"viability, T/C","second compound 0.316 µM, first compound 0.03 µM",29.5%
same,"viability, T/C","second compound 0.316 µM, first compound 0.0949 µM",23%
same,"viability, T/C","second compound 0.316 µM, first compound 0.3 µM",11.9%
same,"viability, T/C","second compound 1 µM, first compound 0.000949 µM",84.5%
same,"viability, T/C","second compound 1 µM, first compound 0.003 µM",64.2%
same,"viability, T/C","second compound 1 µM, first compound 0.00949 µM",50.7%
same,"viability, T/C","second compound 1 µM, first compound 0.03 µM",31.2%
same,"viability, T/C","second compound 1 µM, first compound 0.0949 µM",25.3%
same,"viability, T/C","second compound 1 µM, first compound 0.3 µM",14.5%
